From the supplement of paper PMC10307832

Key:
Test in all cases: relative viability (nuclei count vs DMSO), 5 days (fraction); higher = more cells survive
XMD14-99 + Phenformin = compound: CN1CCN(CC1)C2=CC(=C(C=C2)NC3=NC(=C(S3)C(=O)C4=C(C=CC=C4Cl)Cl)N)OC [XMD14-99] + N=C(N)NC(=N)NCCc1ccccc1 [Phenformin] (partner 250 µM)
Method in brief: (§1)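 For relative viability, nuclei counts in treated wells were divided by those in vehicle wells. Lung cancer cell lines had been pin-tool dosed in 1536-well plates the day after seeding and cultured for 5 days, then fixed and stained in one step (final 0.05% Triton X-100, 1% formaldehyde, 1 ug/ml Hoechst) and imaged at 4×. Doses were one drug alone or a fixed anchor-drug dose plus five library-drug doses (not always all listed) in √10 steps, and values are duplicate-plate medians.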

AZD1208 + Lapatinib = compound: N[C@@H]1CCCN(c2c(/C=C3\SC(=O)NC3=O)cccc2-c2ccccc2)C1 [AZD1208] + CS(=O)(=O)CCNCc1ccc(-c2ccc3ncnc(Nc4ccc(OCc5cccc(F)c5)c(Cl)c4)c3c2)o1 [Lapatinib] (partner 2 µM)
Method in brief: as §1

AZD1208 + Bortezomib = compound: N[C@@H]1CCCN(c2c(/C=C3\SC(=O)NC3=O)cccc2-c2ccccc2)C1 [AZD1208] + CC(C)C[C@H](NC(=O)[C@H](Cc1ccccc1)NC(=O)c1cnccn1)B(O)O [Bortezomib] (partner 0.002 µM)
Method in brief: as §1

XMD14-99 + Tozasertib = compound: CN1CCN(CC1)C2=CC(=C(C=C2)NC3=NC(=C(S3)C(=O)C4=C(C=CC=C4Cl)Cl)N)OC [XMD14-99] + Cc1cc(Nc2cc(N3CCN(C)CC3)nc(Sc3ccc(NC(=O)C4CC4)cc3)n2)n[nH]1 [Tozasertib] (partner 0.1 µM)
Method in brief: as §1

Cell Line | relative viability (XMD14-99 + Phenformin; first compound 0.08 µM) | relative viability (XMD14-99 + Phenformin; first compound 0.8 µM) | relative viability (XMD14-99 + Phenformin; first compound 2.53 µM) | relative viability (XMD14-99 + Phenformin; first compound 8 µM) | relative viability (AZD1208 + Lapatinib; first compound 0.08 µM) | relative viability (AZD1208 + Lapatinib; first compound 0.253 µM) | relative viability (AZD1208 + Lapatinib; first compound 0.8 µM) | relative viability (AZD1208 + Lapatinib; first compound 2.53 µM) | relative viability (AZD1208 + Lapatinib; first compound 8 µM) | relative viability (AZD1208 + Bortezomib; first compound 0.08 µM) | relative viability (AZD1208 + Bortezomib; first compound 0.253 µM) | relative viability (AZD1208 + Bortezomib; first compound 0.8 µM) | relative viability (AZD1208 + Bortezomib; first compound 2.53 µM) | relative viability (AZD1208 + Bortezomib; first compound 8 µM) | relative viability (XMD14-99 + Tozasertib; first compound 0.08 µM) | relative viability (XMD14-99 + Tozasertib; first compound 0.8 µM) | relative viability (XMD14-99 + Tozasertib; first compound 2.53 µM) | relative viability (XMD14-99 + Tozasertib; first compound 8 µM)
NCI-H1355 | 0.518 | 0.473 | 0.424 | 0.36 | 1.04 | 0.995 | 0.777 | 1.09 | 0.71 | 1.29 | 1.09 | 1.15 | 1.2 | 1.04 | 0.54 | 0.519 | 0.408 | 0.324
NCI-H1437 | 0.321 | 0.316 | 0.244 | 0.237 | 0.833 | 1.04 | 0.69 | 0.775 | 0.691 | 0.542 | 0.754 | 0.584 | 0.42 | 0.444 | 0.426 | 0.336 | 0.321 | 0.219
NCI-H1650 | 0.375 | 0.498 | 0.361 | 0.312 | 0.777 | 0.878 | 0.735 | 0.602 | 0.667 | 0.201 | 0.19 | 0.226 | 0.199 | 0.192 | 0.351 | 0.422 | 0.319 | 0.258
NCI-H1651 | 0.321 | 0.319 | 0.301 | 0.272 | 0.805 | 0.784 | 0.717 | 0.643 | 0.62 | 0.978 | 0.925 | 0.858 | 0.96 | 0.816 | 0.767 | 0.645 | 0.657 | 0.556
NCI-H1666 | 0.567 | 0.553 | 0.494 | 0.533 | 0.442 | 0.574 | 0.452 | 0.389 | 0.456 | 0.828 | 0.745 | 0.783 | 0.637 | 0.579 | 0.61 | 0.582 | 0.498 | 0.537
NCI-H1734 | 0.348 | 0.376 | 0.368 | 0.381 | 1.01 | 1.06 | 1.01 | 0.822 | 0.627 | 0.831 | 1.05 | 0.811 | 0.991 | 0.611 | 0.288 | 0.244 | 0.248 | 0.227
NCI-H1755 | 0.587 | 0.57 | 0.578 | 0.523 | 1.05 | 1.09 | 1.01 | 0.978 | 0.848 | 0.97 | 1.06 | 0.96 | 1.02 | 0.904 | 0.519 | 0.531 | 0.478 | 0.512
NCI-H1915 | 0.369 | 0.385 | 0.36 | 0.335 | 0.985 | 1.08 | 1.02 | 0.962 | 0.977 | 0.976 | 1.07 | 0.956 | 0.94 | 1.06 | 0.423 | 0.42 | 0.428 | 0.386
NCI-H1975 | 0.379 | 0.41 | 0.325 | 0.317 | 0.916 | 1.1 | 0.838 | 0.893 | 1.07 | 0.415 | 0.404 | 0.304 | 0.353 | 0.357 | 0.693 | 0.733 | 0.656 | 0.281
